In paper PMC8705538, “Discovery of SARS-CoV-2 Nsp14 and Nsp16 Methyltransferase Inhibitors by High-Throughput Virtual Screening” (Pharmaceuticals, 2021):

What was measured:
SARS-CoV-2 nsp14 = SARS-CoV-2 nsp14 (Severe acute respiratory syndrome coronavirus 2, UniProt P0DTD1); test: biochemical; conditions: 100 μM
SARS-CoV-2 nsp16/nsp10 = SARS-CoV-2 nsp16/nsp10 (Severe acute respiratory syndrome coronavirus 2, UniProt P0DTD1); test: biochemical; conditions: 100 μM

Row | Compound | Percent inhibition at 100 μM, nsp14 (SARS-CoV-2 nsp14) [%] | Percent inhibition at 100 μM, nsp16 (SARS-CoV-2 nsp16/nsp10) [%]
1 | CC(=O)c1cnc(NC(C)c2nnc(CC(=O)O)[nH]2)nc1C (centres unmarked) [ZINC1772709012] | 16 ±13 | 32 ±8
2 | C=CCn1c(=O)c(=O)n(CC(=O)NCCN2CCN(c3cc(Cl)ccc3C)CC2)c2ccccc21 [ZINC000033268761] | 9 ±3 | 32 ±7
3 | Nc1nc2c(c(=O)[nH]1)CC(CCc1ccc(C(=O)NC(CCC(=O)O)C(=O)O)cc1)CN2 (centres unmarked) [ZINC000077301924] | 5 ±6 | 15 ±10
4 | CC(C)CC(C(=O)OCC(=O)Nc1cccc(Cl)c1)N1C(=O)C2CC=CCC2C1=O (centres unmarked) [ZINC000019078629] | 8 ±3 | 37 ±9
5 | O=C(c1ccc(Cn2ccnc2)o1)N1CCc2[nH]c3ccc(Cl)cc3c2C1 [ZINC000072429175] | 0 ±4 | 6 ±5
6 | COc1cccc(C2CC(O)=Nc3c2c(C)nn3-c2ncnc3[nH]cnc23)c1 (centres unmarked) [ZINC000020745418] | -8 ±5 | -7 ±2
7 | O=C(O)c1cc(CN2CC[C@@H](c3ccc4ccccc4c3)[C@H](O)C2)ccc1O [ZINC000065452571] | -3 ±8 | -2 ±5
8 | CCOc1c(Cl)cc(C(=O)Nc2cccc(C(=O)O)c2)cc1Cl [ZINC000004649202] | -1 ±3 | 14 ±5
9 | CC1(O)Cc2n[nH]c(O)c2C(c2ccccc2)C1 (centres unmarked) [ZINC000035326963] | 4 ±8 | -2 ±6
10 | O=C(Cc1csc(SCC(=O)c2ccccc2)n1)Nc1ccccc1 [Compound 005-296-365] | 27 ±2 | -17 ±4
11 | CC1=C(C(=O)O)N2C(=O)C(NC(=O)C(N)c3ccc(O)cc3)C2SC1 (centres unmarked) [ZINC000003830391] | -18 ±6 | -8 ±1
12 | O=C(CC1(O)C(=O)N(Cc2ccc3c(c2)OCO3)c2ccccc21)c1ccc(F)cc1 (centres unmarked) [ZINC000000783765] | -10 ±3 | -3 ±4
13 | O=C(CCc1ccncc1)NC(c1ccccc1)C1CC(O)C1 (centres unmarked) [ZINC000252528037] | 13 ±2 | 36 ±3
14 | Cc1ccc(NC(=O)Cn2c(=O)n(CC(=O)NCc3ccco3)c(=O)c3ccccc32)cc1C [ZINC000009617688] | 10 ±6 | -8 ±4
15 | COc1c(C)c2c(c(O)c1CC=C(C)CCC(=O)Nc1nnc[nH]1)C(=O)OC2 [ZINC000096115284] | 5 ±4 | -68 ±6
16 | Cc1nn(C)c2ncc(NC(=O)c3ccccc3-c3ncc(-c4ccc(F)cc4)o3)cc12 [ZINC000032754717] | 14 ±6 | -24 ±9
17 | O=C(CCc1c[nH]c2ccccc12)N1CCCC1c1ccc[nH]1 (centres unmarked) [ZINC000019688789] | 2 ±0 | -10 ±1

Row | Compound | Percent inhibition at 100 μM, nsp14 (SARS-CoV-2 nsp14) [%] | Percent inhibition at 100 μM, nsp16 (SARS-CoV-2 nsp16/nsp10) [%]
18 | CC(=O)c1cccc(OCc2cc(C(=O)NCC(N)=O)n[nH]2)c1 [ZINC000067920483] | 2 ±2 | -1 ±3
19 | CN(C)c1nc2c(c(N(C)C)n1)CCN(C(=O)[C@@H](N)Cc1ccc(O)cc1)C2 [ZINC000071682020] | 12 ±5 | 9 ±8
20 | O=C(NCc1cccnc1)C1CC(NCc2c(F)cccc2F)CN1Cc1ccccc1 (centres unmarked) [ZINC000020999776] | -2 ±4 | 8 ±5
21 | CN1CC(=O)N(c2cccc(NC(=O)NC[C@H](O)CO)c2)C1=O [ZINC000426716892] | -1 ±2 | 30 ±2
22 | O=C(CCc1cncnc1)N1CCCC(c2nc3ccccc3s2)C1 (centres unmarked) [Compound 046-723-388] | 5 ±3 | -45 ±13
23 | COc1ccc(N2C(=O)CC(c3c(C)[nH]n(-c4nc5ccccc5s4)c3=O)C2=O)cc1 (centres unmarked) [ZINC000018085229] | 11 ±6 | 17 ±6
24 | CC(=O)Nc1ccn(C2OC(CO)C(O)C2O)c(=O)n1 (centres unmarked) [ZINC000001078602] | -15 ±5 | -9 ±1
25 | O=C(CP(=O)(O)O)N=c1[nH]c2ccc(Cl)cc2s1 [ZINC000020502712] | 7 ±6 | 17 ±7
26 | O=C(CCc1ccc(O)cc1)NC(c1ccc2c(c1)CCO2)C1CC(O)C1 (centres unmarked) [ZINC000220681335] | 0 ±2 | 10 ±5
27 | O=C(Nc1ccc(N2CCOCC2)cc1)c1oc2ccccc2c1CSc1nnc[nH]1 [ZINC000003404544] | 3 ±2 | 6 ±8
28 | CN(C)c1nc2c(c(=O)[nH]1)CCN(C(=O)c1n[nH]cc1Cl)C2 [ZINC000072172639] | -1 ±2 | 29 ±5
29 | CC[C@H](C)[C@H](N)C(=O)NS(=O)(=O)OC[C@H]1O[C@@H](n2cnc3c(N)ncnc32)[C@H](O)[C@@H]1O [ZINC000013488353] | 8 ±5 | 34 ±6
30 | CCc1n[nH]c2c1CN(C(=O)c1cccc(-c3cc(O)nc(N)n3)c1)CC2 [ZINC000426470786] | 1 ±6 | 8 ±5
31 | O=C(CN1C(=O)c2ccccc2N2C(=O)c3ccccc3C12)N1CCc2c([nH]c3ccccc23)C1 (centres unmarked) [ZINC000604419204] | 5 ±11 | -3 ±5
32 | O=C(CCc1n[nH]c2c1CCCC2)NCc1cc(O)ncn1 [ZINC000952975967] | 2 ±7 | -24 ±4
33 | Cc1cc(=O)n2c(n1)NC(N1CCOCC1)=NC2c1ccccc1 (centres unmarked) [ZINC000104279901] | -14 ±2 | -33 ±4
34 | Cn1nccc1CCC(=O)N1CCCC(c2nc3ccccc3s2)C1 (centres unmarked) [Compound 042-575-680] | 8 ±1 | 33 ±9
